Measurements reported in PubChem BioAssay (NCI).
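Cultured in 96-well plates, cells were exposed to test compound for 48 hours across five concentrations. The concentration for full growth arrest is given as TGI.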

Key:
Assay in all cases: NCI-60 cell line screen, 48 h
LXFL 529 NSCLC = test system: LXFL 529 NSCLC
OVCAR-8 ovarian = test system: OVCAR-8 ovarian
RXF-631 renal = test system: RXF-631 renal
HOP-18 NSCLC = test system: HOP-18 NSCLC
NCI-H460 lung = test system: NCI-H460 lung
SNB-78 CNS = test system: SNB-78 CNS
SNB-75 CNS = test system: SNB-75 CNS
MALME-3M melanoma = test system: MALME-3M melanoma
CAKI-1 renal = test system: CAKI-1 renal
CCRF-CEM leukemia = test system: CCRF-CEM leukemia
DMS 273 small cell lung = test system: DMS 273 small cell lung
SK-MEL-28 melanoma = test system: SK-MEL-28 melanoma
EKVX NSCLC = test system: EKVX NSCLC
HCT-116 colon = test system: HCT-116 colon
SK-MEL-2 melanoma = test system: SK-MEL-2 melanoma
SF-295 CNS = test system: SF-295 CNS
NCI-H23 lung = test system: NCI-H23 lung
HOP-92 NSCLC = test system: HOP-92 NSCLC
IGROV1 ovarian = test system: IGROV1 ovarian
COLO 205 colon = test system: COLO 205 colon
NCI-H522 lung = test system: NCI-H522 lung
A549 NSCLC = test system: A549 NSCLC
HL-60(TB) leukemia = test system: HL-60(TB) leukemia
SW-620 colon = test system: SW-620 colon
SK-OV-3 ovarian = test system: SK-OV-3 ovarian
LOX IMVI melanoma = test system: LOX IMVI melanoma
SK-MEL-5 melanoma = test system: SK-MEL-5 melanoma
UO-31 renal = test system: UO-31 renal
RXF 393 renal = test system: RXF 393 renal
SF-539 CNS = test system: SF-539 CNS
TK-10 renal = test system: TK-10 renal
DMS 114 small cell lung = test system: DMS 114 small cell lung
HCC-2998 colon = test system: HCC-2998 colon
DLD-1 colon = test system: DLD-1 colon
NCI-H226 lung = test system: NCI-H226 lung
ACHN renal = test system: ACHN renal
SF-268 CNS = test system: SF-268 CNS
OVCAR-5 ovarian = test system: OVCAR-5 ovarian
OVCAR-4 ovarian = test system: OVCAR-4 ovarian
A498 renal = test system: A498 renal
SN12C renal = test system: SN12C renal
UACC-62 melanoma = test system: UACC-62 melanoma
UACC-257 melanoma = test system: UACC-257 melanoma
K-562 leukemia = test system: K-562 leukemia
OVCAR-3 ovarian = test system: OVCAR-3 ovarian
SNB-19 CNS = test system: SNB-19 CNS
HOP-62 NSCLC = test system: HOP-62 NSCLC
HCT-15 colon = test system: HCT-15 colon
KM20L2 colon = test system: KM20L2 colon
HT29 colon = test system: HT29 colon
M14 melanoma = test system: M14 melanoma
KM12 colon = test system: KM12 colon
U251 CNS = test system: U251 CNS
M19-MEL melanoma = test system: M19-MEL melanoma
786-0 renal = test system: 786-0 renal
MOLT-4 leukemia = test system: MOLT-4 leukemia
RPMI-8226 leukemia = test system: RPMI-8226 leukemia

Compound `CC(/C(=N/NC(=O)C(N)=O)c1c(Cl)ccc(Cl)c1O)C1(O)C(=O)Nc2ccccc21` (stereo not drawn) has a TGI (LXFL 529 NSCLC) greater than 100 µM, a TGI (OVCAR-8 ovarian) greater than 100 µM and a TGI (RXF-631 renal) greater than 100 µM. The TGI (HOP-18 NSCLC) was greater than 100 µM, the TGI (NCI-H460 lung) was 78.9 µM and the TGI (SNB-78 CNS) was greater than 100 µM. It also gave a TGI (SNB-75 CNS) greater than 100 µM, a TGI (MALME-3M melanoma) greater than 100 µM and a TGI (CAKI-1 renal) greater than 100 µM. The TGI (CCRF-CEM leukemia) was 75.8 µM, the TGI (DMS 273 small cell lung) was greater than 100 µM and the TGI (SK-MEL-28 melanoma) was greater than 100 µM. The TGI (EKVX NSCLC) was greater than 100 µM, the TGI (HCT-116 colon) was greater than 100 µM and the TGI (SK-MEL-2 melanoma) was greater than 100 µM. For the same compound, the TGI (SF-295 CNS) was greater than 100 µM, the TGI (NCI-H23 lung) was greater than 100 µM and the TGI (HOP-92 NSCLC) was 75.2 µM. For the same compound, the TGI (IGROV1 ovarian) was greater than 100 µM, the TGI (COLO 205 colon) was 49.1 µM and the TGI (NCI-H522 lung) was 44.6 µM. The TGI (A549 NSCLC) was greater than 100 µM, the TGI (HL-60(TB) leukemia) was 68 µM and the TGI (SW-620 colon) was greater than 100 µM. It also gave a TGI (SK-OV-3 ovarian) greater than 100 µM, a TGI (LOX IMVI melanoma) greater than 100 µM and a TGI (SK-MEL-5 melanoma) greater than 100 µM. For the same compound, the TGI (UO-31 renal) was greater than 100 µM, the TGI (RXF 393 renal) was greater than 100 µM and the TGI (SF-539 CNS) was greater than 100 µM. For the same compound, the TGI (TK-10 renal) was greater than 100 µM, the TGI (DMS 114 small cell lung) was greater than 100 µM and the TGI (HCC-2998 colon) was greater than 100 µM. The TGI (DLD-1 colon) was greater than 100 µM, the TGI (NCI-H226 lung) was greater than 100 µM and the TGI (ACHN renal) was greater than 100 µM. For the same compound, the TGI (SF-268 CNS) was greater than 100 µM, the TGI (OVCAR-5 ovarian) was greater than 100 µM and the TGI (OVCAR-4 ovarian) was 92.3 µM. For the same compound, the TGI (A498 renal) was 76.9 µM, the TGI (SN12C renal) was greater than 100 µM and the TGI (UACC-62 melanoma) was greater than 100 µM. The TGI (UACC-257 melanoma) was greater than 100 µM, the TGI (K-562 leukemia) was greater than 100 µM and the TGI (OVCAR-3 ovarian) was greater than 100 µM. For the same compound, the TGI (SNB-19 CNS) was greater than 100 µM, the TGI (HOP-62 NSCLC) was greater than 100 µM and the TGI (HCT-15 colon) was greater than 100 µM. It also gave a TGI (KM20L2 colon) greater than 100 µM, a TGI (HT29 colon) greater than 100 µM and a TGI (M14 melanoma) greater than 100 µM. It also gave a TGI (KM12 colon) greater than 100 µM, a TGI (U251 CNS) greater than 100 µM and a TGI (M19-MEL melanoma) greater than 100 µM. It also gave a TGI (786-0 renal) greater than 100 µM.

Work on `CC1=C(C(=O)Nc2cccc(Cl)c2)C(c2ccc([N+](=O)[O-])cc2)C(C(=O)Nc2cccc(Cl)c2)=C(C)N1` yielded a TGI (LXFL 529 NSCLC) greater than 100 µM, a TGI (OVCAR-8 ovarian) greater than 100 µM and a TGI (MOLT-4 leukemia) of 56.2 µM. It also gave a TGI (RXF-631 renal) of 57.6 µM, a TGI (HOP-18 NSCLC) of 56.7 µM and a TGI (NCI-H460 lung) of 50.4 µM. The TGI (SNB-78 CNS) was greater than 100 µM, the TGI (SNB-75 CNS) was 91.1 µM and the TGI (MALME-3M melanoma) was 59.5 µM. The TGI (CCRF-CEM leukemia) was greater than 100 µM, the TGI (SK-MEL-28 melanoma) was greater than 100 µM and the TGI (EKVX NSCLC) was greater than 100 µM. It also gave a TGI (HCT-116 colon) of 71.9 µM, a TGI (SK-MEL-2 melanoma) of 32.9 µM and a TGI (SF-295 CNS) of 58.4 µM. For the same compound, the TGI (NCI-H23 lung) was 62.3 µM, the TGI (HOP-92 NSCLC) was 31.1 µM and the TGI (IGROV1 ovarian) was greater than 100 µM. For the same compound, the TGI (COLO 205 colon) was greater than 100 µM, the TGI (NCI-H522 lung) was 89.9 µM and the TGI (A549 NSCLC) was greater than 100 µM. It also gave a TGI (HL-60(TB) leukemia) of 47.4 µM, a TGI (SK-OV-3 ovarian) of 48.9 µM and a TGI (LOX IMVI melanoma) of 28.8 µM. The TGI (SK-MEL-5 melanoma) was 33.8 µM, the TGI (UO-31 renal) was 65.4 µM and the TGI (RXF 393 renal) was 58.7 µM. For the same compound, the TGI (SF-539 CNS) was greater than 100 µM, the TGI (TK-10 renal) was greater than 100 µM and the TGI (DMS 114 small cell lung) was greater than 100 µM. The TGI (HCC-2998 colon) was 48.2 µM, the TGI (DLD-1 colon) was greater than 100 µM and the TGI (NCI-H226 lung) was 84.5 µM. The TGI (ACHN renal) was 97.9 µM, the TGI (SF-268 CNS) was greater than 100 µM and the TGI (OVCAR-5 ovarian) was greater than 100 µM. For the same compound, the TGI (OVCAR-4 ovarian) was greater than 100 µM, the TGI (A498 renal) was greater than 100 µM and the TGI (SN12C renal) was 75.8 µM. For the same compound, the TGI (UACC-62 melanoma) was 37.2 µM, the TGI (UACC-257 melanoma) was 38.2 µM and the TGI (K-562 leukemia) was greater than 100 µM. It also gave a TGI (OVCAR-3 ovarian) of 85.3 µM, a TGI (SNB-19 CNS) greater than 100 µM and a TGI (HOP-62 NSCLC) greater than 100 µM. The TGI (HCT-15 colon) was 79.8 µM, the TGI (KM20L2 colon) was 54.4 µM and the TGI (HT29 colon) was 35 µM. It also gave a TGI (M14 melanoma) of 42.1 µM, a TGI (KM12 colon) of 52.9 µM and a TGI (U251 CNS) of 56 µM. The TGI (786-0 renal) was 69.6 µM and the TGI (RPMI-8226 leukemia) was 83.4 µM.
